Data on 18 molecules can be found in USRE38970E1, “Indolyl or indolinyl derivatives and medicinal use thereof as ACAT or lipid peroxidation inhibitors” (Kyoto Pharmaceutical Industries, Ltd., priority 1995, dated 2006).

What is called Solubility is the concentration that dissolves in the medium under given conditions. Read a low Solubility as little dissolved substance. By solubility is commonly meant the dissolved amount per volume that the medium holds.

Data set [1] is described as follows: Solubility in buffer pH 6.8. The following applies: for Solubility: buffer pH 6.8, shaken 1 hr at 25° C., HPLC; for solubility at 1 h: buffer pH 6.8, 25 °C, pH 6.8, aqueous buffer, thermodynamic from solid.
Procedure: A pulverized test compound (10 mg) was added to buffer (1 ml, pH 6.8), and the mixture was shaken for 1 br at 25° C.
Data set [2] can be described thus: Oral administration, plasma concentration in SD rats. The following applies: 30 mg/kg orally, fasted male SD rats, sampled 0.5-6 hours.
Procedure: (§1) At 0.5, 1, 2, 4 and 6 hours after administration, blood was taken and heparinized plasma was separated by conventional method.
Data set [3] is described as follows: Oral administration, plasma concentration in Wister rats. The following applies: 30 mg/kg orally, fasted male Wister rats, sampled 0.5-6 hours.
Procedure: as §1
Data set [4] relates to serum total cholesterol. In words: Serum total cholesterol reducing effect in rats on high cholesterol feed. In kind it is in vivo. The settings on record: male Wister rats, vs control.
Procedure: Mile Wister rats weighing 180-200 g were bred under free access to a high cholesterol feed [added with cholesterol (1%), cholic acid (0.5%) and coconut oil (10%), Clea Japan, Inc.] for 3 days, during which period a test compound (3 mg/kg and 10 mg/kg) suspended in 5% gum arabic solution was forcibly administered once a day orally for 3 days. Only 5% gum arabic solution was administered to control animals. After final administration, the test animals were fasted and blood was taken 5 hours later. The serum total cholesterol level was determined using a commercially available assay lit (cholesterol-CII-Test Wako, Wako Pure Chemical Industries, Ltd.).
Data set [5] has as its system plasma lipoperoxidation. In words: In vitro plasma lipoperoxidation inhibitory activity (malondialdehyde production). The settings on record: rat heparinized plasma, test compound final concentration 10^-5M, copper sulfate, malondialdehyde production vs control. In kind it is biochemical, Wister rats.
Procedure: Under ether anesthesia, blood was taken from male Wister rats weighing 160-190 g that had been fasted for 16 hours, and heparinized plasma was separated by conventional method. DMSO (10 μl) or a test compound (final concentration 10^−5M) dissolved in DMSO (test compound solution 10 μl) was added to plasma (1.0 ml), and the mixture was incubated at 37° C. for 5 minutes.
Data set [6] concerns plasma lipoperoxidation. In words: Ex vivo plasma lipoperoxidation inhibitory activity after oral administration. In kind it is in vivo. The following applies: male Wister rats, plasma taken 1 hour after administration.
Procedure: Under ether anesthesia, blood was taken from male Wister rats weighing 160-190 g that had been fasted for 16 hours, and heparinized plasma was separated by conventional method.
Only 5% gum arabic solution was administered to control animals. At 1 hour after administration, blood was taken under ether anesthesia and heparinized plasma was separated by conventional method. The plasma (1.0 ml) was processed in the same manner as in Experimental Example 3 and the amount of produced malondialdehyde was determined.
Data set [7] has as its system ACAT. The data set is described as follows: ACAT inhibitory activity (cholesteryl oleate production by small intestine mucosal microsomes). In kind it is biochemical, Japanese white rabbits. The following applies: rabbit small intestine mucosal microsomes, [1-14C] oleoyl CoA, 37° C. 7 minutes, vs control; test concentration not given.
Setting [8] is: 3 mg/kg/day orally once a day for 3 days.
[9] abbreviates: 10 mg/kg/day orally once a day for 3 days.

Converted amounts (≈) assume the structure as drawn.

`CCCCCCCCCN1CCc2c(C)c(CC(=O)O)c(C)c(NC(=O)C(C)(C)C)c21` [Example 36]: in data set [1], the “Solubility” value was 4200 µg/mL (≈ 9.75 mM). For the same molecule, the “Highest concentration in plasma” value in data set [2] worked out at 12.2 µg/mL; in data set [3] it was 2.2 µg/mL.
For `CCCCCCCCN1CCc2c(C)c(CC(=O)O)c(C)c(NC(=O)C(C)(C)C)c21` [Example 4, N-(1-octyl-5-carboxymethyl-4,6-dimethylindolin-7-yl)-2,2-dimethylpropanamide], the “Reduction (%) of serum total cholesterol” value turned out to be 58.8% in data set [4] (setting [8]) and 57.5% in data set [4] (setting [9]). Further, the “Inhibition (%) of plasma lipoperoxidation” value was 51.2% in data set [5] and 39.0% in data set [6] (10 mg/kg orally). This molecule came in with a solubility at 1 h in data set [1] of 6900 µg/mL (≈ 16.6 mM). Further, the “Highest concentration in plasma” value was 13.6 µg/mL in data set [2] and 1.4 µg/mL in data set [3].
In the case of `CCCCCCCCN1CCc2cc(C(=O)O)c(C)c(NC(=O)C(C)(C)C)c21` [Example 155, N-(1-octyl-5carboxy-6-methylindolin-7-yl)-2,2-dimethylpropanamide], the “Reduction (%) of serum total cholesterol” value was 55.2% in data set [4] (setting [8]) and 58.5% in data set [4] (setting [9]). For the same molecule, the “Inhibition (%) of plasma lipoperoxidation” value in data set [5] was determined as 47.7%.
For `CCCCCCCCN1CCc2cc(CN(C)C)c(C)c(NC(=O)C(C)(C)C)c21` [Example 81], the “Reduction (%) of serum total cholesterol” value in data set [4] (setting [8]) was 31.7%; in data set [4] (setting [9]), 53.8%. The “Inhibition (%) of plasma lipoperoxidation” value in data set [5] is reported as 47.1%.
Take `Cc1cc(C)c(NC(=O)N(Cc2ccc3c(c2)Cc2ccccc2-3)C2CCCCCC2)c(C)c1` [YM-750, 1-cycloheptyl-1-[(2-fluorenyl)methyl]-3-(2,4,6-trimethyl-phenyl) urea, reference compound]: the “ACAT inhibition (%)” value in data set [7] is given as 92.0%. Besides, the “Reduction (%) of serum total cholesterol” value in data set [4] (setting [8]) amounted to 37.7%; in data set [4] (setting [9]), 46.4%. In data set [1], the solubility at 1 h was less than 10 µg/mL.
As for `CCCCCCCCN1CCc2cc(CO)c(C)c(NC(=O)C(C)(C)C)c21` [Example 76], the “ACAT inhibition (%)” value in data set [7] was 94.7%. Also, in data set [5], the “Inhibition (%) of plasma lipoperoxidation” value is given as 51.7%.
Regarding `CC(C)(Sc1cc(C(C)(C)C)c(O)c(C(C)(C)C)c1)Sc1cc(C(C)(C)C)c(O)c(C(C)(C)C)c1` [Probucol, 4,4-isopropylidenedithiobis(2,6-di-t-butylphenol), reference compound], the “Inhibition (%) of plasma lipoperoxidation” value in data set [6] (100 mg/kg orally) was 15.4%.
Consider `CCCCCCCCN1CCc2c(C)c(C(=O)O)c(C)c(NC(=O)C(C)(C)C)c21` [Example 159], for which the results for the “Reduction (%) of serum total cholesterol” value in data set [4] (setting [8]) and in data set [4] (setting [9]) were 53.8% and 57.5%, respectively. Moreover, the “Inhibition (%) of plasma lipoperoxidation” value in data set [5] was found to be 48.3%.
For the molecule `CCCCCCCCN1CCCc2c(C)c(CC(=O)O)c(C)c(NC(=O)C(C)(C)C)c21` [Example 125, N-(1-octyl-6-carboxymethyl-5,7-dimethyl-1,2,3,4-tetrahydroquinolin-8-yl)-2,2-dimethylpropanamide], the “ACAT inhibition (%)” value in data set [7] came to 93.0%. The results for the “Reduction (%) of serum total cholesterol” value in data set [4] (setting [8]) and in data set [4] (setting [9]) were 30.2% and 47.9%, respectively. In addition, the “Inhibition (%) of plasma lipoperoxidation” value in data set [5] was 48.0%.
Taken in the same sequence, the figures for `CCCCCCCCN1CCc2c(C)c(CO)c(C)c(NC(=O)C(C)(C)C)c21` [Example 1, N-(1-octyl-5-hydroxymethyl-4,6-dimethylindolin-7-yl)-2,2-dimethylpropanamide] were 99.2%, 52.8%, 57.1% and 51.7%.
Turning to `CCCCCCCCN1CCc2cc(CC(=O)O)c(C)c(NC(=O)C(C)(C)C)c21` [Example 116], the “ACAT inhibition (%)” value in data set [7] is given as 92.0%. The “Reduction (%) of serum total cholesterol” value turned out to be 26.5% in data set [4] (setting [8]) and 50.9% in data set [4] (setting [9]). In data set [5], the “Inhibition (%) of plasma lipoperoxidation” value amounted to 45.5%.
`CCCCSCCCCCCN1CCc2c(C)c(CC(=O)O)c(C)c(NC(=O)C(C)(C)C)c21` [Example 121]: the “ACAT inhibition (%)” value in data set [7] is reported as 92.5%. The results for the “Reduction (%) of serum total cholesterol” value in data set [4] (setting [8]) and in data set [4] (setting [9]) were 87.8% and 48.1%, respectively. The “Inhibition (%) of plasma lipoperoxidation” value in data set [5] was 41.6%.
For `CCCCCCN1CCc2c(C)c(CC(=O)O)c(C)c(NC(=O)C(C)(C)C)c21` [Example 18], the “Solubility” value in data set [1] is 7300 µg/mL (≈ 18.8 mM).
As for `CCCCCCCCN1CCc2c(C)c(CC(=O)OCC)c(C)c(NC(=O)C(C)(C)C)c21` [Example 3, N-(1-octyl-5-ethoxycarbonylmethyl-4,6-dimethylindolin-7-yl)-2,2-dimethylpropanamide], in data set [7], the “ACAT inhibition (%)” value stood at 92.5%. The results for the “Reduction (%) of serum total cholesterol” value in data set [4] (setting [8]) and in data set [4] (setting [9]) were 54.2% and 61.2%, respectively. In addition, in data set [5], the “Inhibition (%) of plasma lipoperoxidation” value is reported as 49.2%.
As for `CCCCCCCCN1CCc2cc(CC(=O)O)c(C)c(NC(=O)C(C)(C)C)c21` [Example 71], the “Reduction (%) of serum total cholesterol” value in data set [4] (setting [8]) is 26.5%; in data set [4] (setting [9]) it was 52.3%. For the same molecule, the “Inhibition (%) of plasma lipoperoxidation” value in data set [5] was found to be 48.1%. In data set [1], the “Solubility” value came out at 100 µg/mL (≈ 0.248 mM).
`CCCCCCCCN1CCc2c(C)c(CCC(=O)O)c(C)c(NC(=O)C(C)(C)C)c21` [Example 120, N-(1-octyl-5-carboxyethyl-4,6-dimethylindolin-7-yl)-2,2-dimethylpropanamide]: the “ACAT inhibition (%)” value in data set [7] was determined as 92.3%. The “Reduction (%) of serum total cholesterol” value is listed as 45.8% in data set [4] (setting [8]) and 44.6% in data set [4] (setting [9]).
Take `CCCCSCCCN1CCc2c(C)c(CC(=O)O)c(C)c(NC(=O)C(C)(C)C)c21` [Example 122]: the “ACAT inhibition (%)” value in data set [7] is 92.0%. Moreover, the “Reduction (%) of serum total cholesterol” value amounted to 88.2% in data set [4] (setting [8]) and 50.0% in data set [4] (setting [9]).
With `CCCCCCCCN1CC(CCC(=O)O)c2c(C)cc(C)c(NC(=O)C(C)(C)C)c21` (stereo not shown) [Example 11, N-[(1-octyl-3-(2-carboxyethyl)-4,6-dimethylindolin-7-yl)]-2,2-dimethylpropanamide], in data set [5], the “Inhibition (%) of plasma lipoperoxidation” value was determined as 44.5%.
